Data on four molecules can be found in article PMC9939733 (The Journal of Biological Chemistry, 2023).

Changes are numbered by the printed parent chain. “And” between values parts separate entries of the source, which are not always exact repeats. Equal values may be shown once. Read-outs that look alike come from different tables or passages of the source.

The target of assay [1] is T1, R132H IDH1 (Homo sapiens, UniProt O75874, R132H). Kind of assay: Steady-state kinetics, absorbance assay. Details: made in house; host or cells: Escherichia coli BL21(DE3) pLyS. Particulars: 0.03 μM enzyme, 50 μM NADPH, 20 mM MgCl2, pH 8.0. The format is biochemical. As for the experimental part:
(§1) Compounds were dispensed using a CyBio SDW-CW CyBi-Well Simultaneous Pipettor and assay started using a ThermoFisher Multidrop Combi reagent dispenser.
(§2) Reactions were performed as technical duplicates, and all assays were carried out in two independent duplicates.

In assay [2] the target is T2, R140Q IDH2 (Homo sapiens, UniProt P48735, R140Q).
T2 construct: made in house; host or cells: Sf21 insect cells (cell pellets prepared at Evotec)
T2 sequence (P48735 40-452 R140Q): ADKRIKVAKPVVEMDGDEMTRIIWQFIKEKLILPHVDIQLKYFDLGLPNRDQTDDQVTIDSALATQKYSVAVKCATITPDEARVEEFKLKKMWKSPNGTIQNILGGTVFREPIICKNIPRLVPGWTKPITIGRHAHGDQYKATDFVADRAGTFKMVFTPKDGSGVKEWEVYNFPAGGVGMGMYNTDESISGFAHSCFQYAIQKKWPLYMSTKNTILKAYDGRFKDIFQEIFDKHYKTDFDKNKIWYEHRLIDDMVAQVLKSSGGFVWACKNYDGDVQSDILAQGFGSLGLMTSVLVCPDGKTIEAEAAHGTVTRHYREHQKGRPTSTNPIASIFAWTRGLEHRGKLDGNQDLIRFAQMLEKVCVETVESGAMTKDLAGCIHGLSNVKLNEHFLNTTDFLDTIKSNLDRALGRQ
Put plainly: Steady-state kinetics, absorbance assay. The format is biochemical. Particulars: 0.03 μM enzyme, 50 μM NADPH, 20 mM MgCl2, pH 8.0. The protocol:
as §1, §2

Assay [3] concerns the target T3, R172K IDH2 (Homo sapiens, UniProt P48735, R172K).
T3 construct: made in house; host or cells: Sf21 insect cells (cell pellets prepared at Evotec)
T3 sequence (P48735 40-452 R172K): T2 sequence (P48735 40-452 R140Q) with Q101R, R133K
Put plainly: Steady-state kinetics, absorbance assay. Particulars: 0.03 μM enzyme, 50 μM NADPH, 20 mM MgCl2, pH 8.0. The format is biochemical. As for the experimental part: as §1, §2

The target of the next assay is T4, R132C/S280F IDH1 (Homo sapiens, UniProt O75874, R132C/S280F).
T4 construct: made in house
Kind of assay: Steady-state kinetics, NADPH turnover assay. The format is biochemical. The protocol:
independent runs, each composed of technical duplicates (n = 2; mean ± SD); c) R132C/S280F IDH1 assays
monitoring NADPH turnover were performed as reported (3). […]

The target in assay [4] is T5, WT IDH2 (Homo sapiens, UniProt P48735).
T5 construct: made in house; host or cells: Sf21 insect cells (cell pellets prepared at Evotec)
T5 sequence (P48735 40-452): T2 sequence (P48735 40-452 R140Q) with Q101R
Kind of assay: Absorbance assay, substrate activity in the absence of DL-isocitrate. The format is biochemical. Particulars: no DL-isocitrate; […] test compound, 75 μM NADP+, 2.0 nM WT IDH2; compared to DL-isocitrate. The method, boiled down: (§3)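 Starting each reaction by automated reagent dispensing after simultaneous compound pipetting, the work used quadruplicate technical replicates.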

For assay [5], the target named is T6, WT IDH1 (Homo sapiens, UniProt O75874).
T6 construct: made in house; host or cells: Escherichia coli BL21(DE3) pLyS
The description is as above. The format is biochemical. Particulars: no DL-isocitrate; […] test compound, 75 μM NADP+, 2.0 nM WT IDH1; compared to DL-isocitrate. The method, boiled down: as §3

For assay [6], the target named is T5, WT IDH2. Kind of assay: Absorbance assay, WT activity in the presence of equimolar DL-isocitrate (inhibition). Particulars: […] isocitrate and […] test compound, 75 μM NADP+, 2.0 nM WT IDH2. The format is biochemical. In short, it runs like this: as §3
The target in assay [7] is T6, WT IDH1. The description is as above. The format is biochemical. Particulars: […] isocitrate and […] test compound, 75 μM NADP+, 2.0 nM WT IDH1. In short, it runs like this:
as §3

Assay [8] has as its target T1, R132H IDH1. Put plainly: Absorbance assay, variant activity in the presence of equimolar 2OG (inhibition screen). Particulars: […] 2OG and […] test compound, 0.03 μM R132H IDH1, 50 μM NADPH. More on the design: made in house; host or cells: Escherichia coli BL21(DE3) pLyS. The format is biochemical. In short, it runs like this: as §3
For assay [9], the target named is T2, R140Q IDH2. The description is as above. The format is biochemical. Particulars: for activity [%] (%-substrate conversion after 20 min incubation): 6.0 mM 2OG and 6.0 mM test compound, 0.03 μM R140Q IDH2, 50 μM NADPH. The method, boiled down:
as §3

The target in assay [10] is T3, R172K IDH2. The assay is described as above. The format is biochemical. Particulars: for activity [%] (%-substrate conversion after 20 min incubation): 1.0 mM 2OG and 1.0 mM test compound, 0.03 μM R172K IDH2, 50 μM NADPH. In short, it runs like this: as §3
The target in assay [11] is T2, R140Q IDH2. Kind of assay: Absorbance assay, IC50 determination. The format is biochemical. The protocol: (§4) The reactivity of WT IDH1/2 and oncogenic IDH1/2 variants was assayed at ambient temperature by continuously monitoring the concentration-dependent change in absorbance ([…]) of NADPH using a PheraStar FS or a CLARIOstar Plus plate reader (BMG Labtech). Enzyme reactions (60 μL total reaction volume) were performed in clear 384-well UV-STAR plates (Greiner Bio-one, #781801). Compounds were dispensed using a CyBio SDW-CW CyBi-Well Simultaneous Pipettor and assay started using a ThermoFisher Multidrop Combi reagent dispenser.
(§5) Final assay concentrations were as follows: 30 nM IDH1/2 variant and 50 μM NADPH. […] Reactions were performed as technical quadruplicates, and all assays were carried out in two independent duplicates. GraphPad Prism (version 5.04) was used for data analysis and to determine the IC50 values.

The target of assay [12] is T3, R172K IDH2. Kind of assay: Absorbance assay, IC50 determination. The format is biochemical. The protocol:
as §4, §5

Assay [13] concerns the target T1, R132H IDH1. Kind of assay: Absorbance assay, IC50 determination. The format is biochemical. Details: made in house; host or cells: Escherichia coli BL21(DE3) pLyS. The protocol:
as §4, §5

The target in assay [14] is T2, R140Q IDH2. Put plainly: Absorbance assay (NADPH consumption), substrate turnover in the absence of 2OG. The format is biochemical. Particulars: no 2OG; 6.0 mM test compound, 0.03 μM R140Q IDH2, 50 μM NADPH; 2OG = 100. The method, boiled down:
as §3

For assay [15], the target named is T3, R172K IDH2. The description is as above. The format is biochemical. Particulars: no 2OG; 1.0 mM test compound, 0.03 μM R172K IDH2, 50 μM NADPH; 2OG = 100. In short, it runs like this:
as §3

The target in assay [16] is T1, R132H IDH1. The assay is described as above. The format is biochemical. Details: made in house; host or cells: Escherichia coli BL21(DE3) pLyS. Particulars: no 2OG; […] test compound, 0.03 μM R132H IDH1, 50 μM NADPH; 2OG = 100. In short, it runs like this:
as §3

The subject of another assay is FIH. Particulars: ref [22], [23]; cited from earlier work.

T4 sequence (O75874 whole entry R132C/S280F): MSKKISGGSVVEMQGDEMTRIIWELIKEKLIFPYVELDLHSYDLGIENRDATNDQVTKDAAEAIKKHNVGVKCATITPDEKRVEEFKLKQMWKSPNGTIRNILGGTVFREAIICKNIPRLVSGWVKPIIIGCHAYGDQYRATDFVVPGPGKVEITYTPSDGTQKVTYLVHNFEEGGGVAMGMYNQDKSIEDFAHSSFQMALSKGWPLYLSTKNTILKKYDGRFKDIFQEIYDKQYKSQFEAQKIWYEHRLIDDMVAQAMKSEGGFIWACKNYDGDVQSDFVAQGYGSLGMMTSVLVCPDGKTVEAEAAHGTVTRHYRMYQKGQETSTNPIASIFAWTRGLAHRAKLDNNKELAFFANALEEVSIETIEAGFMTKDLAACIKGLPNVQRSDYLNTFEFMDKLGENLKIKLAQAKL
T6 sequence (O75874 whole entry): as the sequence (O75874 whole entry R132C/S280F) above, with C132R, F280S counted along it
T1 sequence (O75874 whole entry R132H): as the sequence (O75874 whole entry R132C/S280F) above, with C132H, F280S counted along it

`CC(CC(=O)O)C(=O)C(=O)O` (stereo not drawn) [compound 1, 3-methyl-2OG]: the Kmapp is 3.7 ± 0.1 mM at R132H IDH1 [1]; 2.0 ± 0.8 mM and ~2.0 mM on R140Q IDH2 [2]; 4.2 ± 0.4 mM at R172K IDH2 [3]; 0.31 ± 0.01 mM on R132C/S280F IDH1. For the same molecule, the kcatapp is 6.9 ± 0.4 s⁻¹ at R132H IDH1 [1], 5.4 ± 0.3 s⁻¹ at R140Q IDH2 [2], 4.8 ± 0.2 s⁻¹ on R172K IDH2 [3] and 20.2 ± 0.5 s⁻¹ at R132C/S280F IDH1. Besides, the “activity [%] (%-substrate conversion after 20 min incubation)” value (from here on “activity [%]”) at WT IDH2 [4] is on record as < 10%; at WT IDH1 [5], < 10%; at WT IDH2 [6], 97±3%; on WT IDH1 [7] it was 94±1%; at R132H IDH1 [8] it was 391 ± 20%; on R140Q IDH2 [9], 107 ± 4%. Also, the “activity [%]” value on R172K IDH2 [10] came out at 151 ± 5%.

As to `O=C(O)CNC(=O)C(=O)O` [NOG, N-oxalylglycine, reference compound], the results for the IC50 at R140Q IDH2 [11], against R172K IDH2 [12] and against R132H IDH1 [13] were ~621 µM, ~161 µM and ~188 µM, respectively. In addition, the “activity [%]” value on R140Q IDH2 [14] is on record as < 10%; at R172K IDH2 [15], < 10%; at WT IDH2 [6], 93 ± 1%; on WT IDH1 [7], 93 ± 2%; on R132H IDH1 [8], < 10%; on R132H IDH1 [16] it was < 10%. Further, the entries for the “activity [%]” value on R140Q IDH2 [9] and at R172K IDH2 [10] were 12 ± 7% and 13 ± 4%, respectively. The inhibition on R140Q IDH2 [9] (equimolar 2OG (6.0 mM)) and at R172K IDH2 [10] (equimolar 2OG (1.0 mM)) was ≥ 90% throughout.

With `CC1(C)c2ccccc2-c2ccc(CC(CC(=O)O)C(=O)C(=O)O)cc21` (racemic) [compound 11], the IC50 is ~1650 µM against R140Q IDH2 [11] (6.0 mM 2OG, 0.03 μM enzyme, 50 μM NADPH); ~84 µM on R172K IDH2 [12] (1.0 mM 2OG, 0.03 μM enzyme, 50 μM NADPH); ~1100 µM against R132H IDH1 [13] ([…] 2OG, 0.03 μM enzyme, 50 μM NADPH). The “activity [%]” value on WT IDH2 [4] is < 10%; at WT IDH1 [5], < 10%; on WT IDH2 [6], 96±2%; at WT IDH1 [7], 98±2%; at R132H IDH1 [8] it was < 10%; at R140Q IDH2 [9], < 10%. Also, on R172K IDH2 [10], the “activity [%]” value was < 10%. Moreover, in the assay with FIH, the “inhibition of FIH” value is on record as “potent inhibitor”.

On to `CCCCC(CC(=O)O)C(=O)C(=O)O` (stereo not drawn) [compound 4, 3-butyl-2OG], for which the Kmapp on R132H IDH1 [1] was 5.7 ± 3.3 mM; at R140Q IDH2 [2] it was 3.8 ± 0.8 mM and 3.8 to 7.5 mM; at R172K IDH2 [3] it was 16 ± 5 mM; on R132C/S280F IDH1, 0.24 ± 0.01 mM. The kcatapp was 9.2 ± 0.4 s⁻¹ at R132H IDH1 [1]; 9.7 ± 0.4 s⁻¹ on R140Q IDH2 [2]; 7.8 ± 1.8 s⁻¹ and ~7.8 s⁻¹ at R172K IDH2 [3]; 15 ± 3 s⁻¹ at R132C/S280F IDH1. Also, the “activity [%]” value at WT IDH2 [4] is recorded as < 10%; on WT IDH1 [5], < 10%; on WT IDH2 [6], 98±2%; on WT IDH1 [7], 96±1%; on R132H IDH1 [8] it was 376 ± 21%; at R140Q IDH2 [9], 753 ± 72%. Besides, the “activity [%]” value at R172K IDH2 [10] is 126 ± 3%.
